From patent US5549903A, “Microencapsulated composition containing chlorpyrifos or endosulfsan” (priority 1994, dated 1996)

How the values were obtained:
[1] = Stability of unprotected chlorpyrifos to UV/visible light; type: physicochemical; details: 68 hours
Protocol: Unprotected chlorpyrifos was irradiated by an ultraviolet/visible light lamp for 68 hours. The stability versus the wavelength of the light is summarized as follows: […]

[2] = test system: honey bees; details: technical chlorpyrifos, comparison value; cited from earlier work
[3] = test system: rats; details: technical chlorpyrifos; cited from earlier work
[4] = test system: honey bees; details: technical chlorpyrifos, comparison value; cited from earlier work; remark: listed apart in the source
[5] = test system: mice; details: technical material; cited from earlier work
[6] = Stability of endosulfan to irradiation; type: physicochemical; details: 100 hours at 310±5 nanometers and 475± nanometers
Description: Details of the stability of chlorpyrifos are listed in Example 2.

| Structure (SMILES) | Extent of Degradation ([1]; 313 ± 5 nm) | Extent of Degradation ([1]; 365 ± 5 nm) | Extent of Degradation ([1]; 404 ± 5 nm) | Extent of Degradation ([1]; 436 ± 5 nm) | LD50 oral [2] [μg/bee] | LD50 (acute oral) [3] [mg/kg] | LD50 contact [4] [μ/bee] | LD50 [5] [mg/kg] | decomposition after irradiation [6] |
| --- | --- | --- | --- | --- | --- | --- | --- | --- | --- |
| CCOP(=S)(OCC)Oc1nc(Cl)c(Cl)cc1Cl [chlorpyrifos, O,O-diethyl-O-(3,5,6-trichloro-2-pyridyl)-phosphorathio-ate] | Total degradation | Low degradation | Low degradation | Medium degradation | 0.25 | 168 | 0.059 |  |  |
| O=S1OCC2C(CO1)C1(Cl)C(Cl)=C(Cl)C2(Cl)C1(Cl)Cl (stereo not drawn) [endosulfan, 6,7,8,9,10-hexachloro-1,5-5a,9a tetryhydro-6,9-methano-2,4,3-benzodioxathipia-3-oxide] |  |  |  |  |  |  |  | 30 | decomposed |
